Series [1] deals with NCI-H460. As to the kind of experiment: Cytotoxicity against human NCI-H460 3D spheroid cells assessed as reduction in cell viability measured after 72 hrs by Celltiter-glo assay. On the technique in general: In ATP-based viability assays light output follows the ATP content of the culture.
The test system of series [2] is NCI-H460. Nature of the series: Antitumor activity against human H460 cells xenografted in BALB/c SLC nu/nu mouse assessed as reduction in tumor weight at 50 mg/kg, ip administered every other day for 15 days and measured post-last dose. The series is classed as functional, organism-based.
Series [3] is described as follows: Cytotoxicity against human WI26 cells assessed as reduction in cell viability measured after 72 hrs by MTT assay. For orientation: Formazan colour is commonly taken as a measure of viable cells.
The nature of series [4]: Toxicity in human H460 cells xenografted BALB/c SLC nu/nu mouse assessed as change in body weight at 50 mg/kg, ip administered every other day for 15 days and measured 4 times during compound dosing. The following applies: in vivo, 360 h.
The subject of series [5] is A549. As to the kind of experiment: Antiproliferative activity against human A549 cells stably expressing AIMP2 DX2 isoform measured after 72 hrs by MTT assay. The series is classed as functional, cell-based.
Series [6] relates to NCI-H460. As to the kind of experiment: Antitumor activity against human H460 cells xenografted in BALB/c SLC nu/nu mouse assessed as reduction in tumor volume at 50 mg/kg, ip administered every other day for 15 days and measured 4 times during compound dosing. It is filed as functional, organism-based. In general terms: A xenograft is tissue or cells of one species grown in another, often human tumour cells in immunodeficient mice.

Series [7] concerns A549. Nature of the series: cells. The following applies: Homo sapiens, A549, 72 h.
Description: Antiproliferative activity against human A549 cells measured after 72 hrs by MTT assay
Series [8] deals with A549. The following applies: Homo sapiens, 5 uM.
Description: Inhibition of LgBiT-tagged PRKACA-SmBiT-tagged PRKAR2A (unknown origin) protein-protein interaction expressed in human A549 cells at 5 uM measured after 4 hrs by luminescence assay
In series [9] the target is T1, Aminoacyl tRNA synthase complex-interacting multifunctional protein 2 (Homo sapiens, UniProt Q13155).
T1 sequence (Q13155 whole entry): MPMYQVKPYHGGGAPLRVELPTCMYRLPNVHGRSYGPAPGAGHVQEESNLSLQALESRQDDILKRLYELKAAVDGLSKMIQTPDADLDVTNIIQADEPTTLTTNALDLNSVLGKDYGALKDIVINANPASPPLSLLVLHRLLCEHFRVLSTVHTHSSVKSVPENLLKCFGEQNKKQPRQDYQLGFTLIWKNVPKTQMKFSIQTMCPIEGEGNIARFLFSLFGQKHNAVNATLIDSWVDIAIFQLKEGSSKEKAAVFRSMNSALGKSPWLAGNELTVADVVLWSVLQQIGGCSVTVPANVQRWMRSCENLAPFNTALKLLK
As to the kind of experiment: Inhibition of nanoluciferase-tagged AIMP2 (unknown origin) expressed in human A549 cells measured after 4 hrs by luminescence assay. The series is classed as cell-based.

The target in series [10] is Aminoacyl tRNA synthase complex-interacting multifunctional protein 2 (Homo sapiens, UniProt Q13155). Nature of the series: Inhibition of nanoluciferase-tagged AIMP2 DX2 isoform (unknown origin) expressed in human A549 cells measured after 4 hrs by luminescence assay. It is filed as cell-based.

The structures appear in SMILES notation. Active and inactive are the calls of the source. No cut-off for these calls is given here.

With `COc1ccc(-c2csc(NC(=O)[C@H](Cc3c[nH]c4ccccc34)NS(=O)(=O)c3ccc(C)cc3)n2)cc1`, the Activity entry was “Dose-dependent effect” in series [1] and “Non-Toxic” in series [4]. The outcome in series [2], in series [5] and in [6] was Active. Besides, the values for the EC50 in [3] and in series [7] were greater than 100 µM and 1.2 µM, respectively. The inhibition entry in series [8] is “inactive”.

`Cc1ccc(S(=O)(=O)N[C@@H](Cc2c[nH]c3ccccc23)C(=O)Nc2ccc(N3CCOCC3)cc2)cc1`: the EC50 (in general, the concentration at which the effect is half-maximal) in series [3] is greater than 100 µM; in series [7], 14.2 µM.

As for `Cc1ccc(S(=O)(=O)N[C@@H](CC(C)C)C(=O)N2CCOCCOCCOCC2)cc1`, the EC50 in [3] was greater than 100 µM; in [7] it was 40.8 µM. Besides, the values for the IC50 in series [9] and in series [10] were greater than 100 µM and 40.1 µM, respectively.

Values taken from ChEMBL document CHEMBL4354880, “Synthesis and Structure-Activity Relationships of Arylsulfonamides as AIMP2-DX2 Inhibitors for the Development of a Novel Anticancer Therapy” (J Med Chem, 2020).
